Measurements: patent EP0353827A2, “New immunosuppressant-producing culture” (MERCK & CO. INC., priority 1988, dated 1990)

Tested on: mouse T lymphocytes stimulated with the combination of ionomycin plus PMA
Test: T-cell proliferation assay (ionomycin plus PMA induced T-cell stimulation, tritiated thymidine uptake)
Assay type: cell-based
Conditions: for immunosuppressive activity, inhibition of T-cell activation: qualitative statement
From the text: The principle of this assay is to measure the proliferation of mouse T lymphocytes stimulated with the combination of ionomycin plus PMA. A positive sample in this assay will inhibit T-cell proliferation, as indicated by reduced tritiated thymidine uptake.
Spleens from C57B1/6 mice were taken under sterile conditions and gently dissociated in ice-cold RPMI 1640 culture medium (GIBCO, Grand Island, N.Y.) supplemented with 10% heat-inactivated fetal calf serum (GIBCO). Cells were pelleted by centrifugation at 1500 rpm for 8 minutes. Contaminating red cells were removed by treating the pellet with ammonium chloride lysing buffer (GIBCO) for 2 minutes at 4°C. Cold medium was added and cells were again centrifuged at 1500 rpm for 8 minutes. T lymphocytes were then isolated by separation of the cell suspension on nylon wool columns as follows: Nylon wool columns were prepared by packing approximately 4 grams of washed and dried nylon wool into 20 ml plastic syringes. The columns were sterilized by autoclaving at 250°F for 30 minutes. Nylon wool columns were wetted with warm (37°C) culture medium and rinsed with the same medium. Washed spleen cells resuspended in warm medium were slowly applied to the nylon wool. The columns were then incubated in an upright position at 37°C for 1 hour. Non-adherent T lymphocytes were eluted from the columns with warm culture medium and the cell suspensions were spun as above.
Purified T lymphocytes were resuspended at 2.5 x 10⁵ cells/ml in complete culture medium composed of RPMI 1640 medium with 10% heat-inactivated fetal calf serum, 100 mM glutamine, 1 mM sodium pyruvate, 2 x 10⁻⁵ M 2-mercaptoethanol and 50 µg/ml gentamycin. Ionomycin was added at 250 ng/ml and PMA at 10 ng/ml. The cell suspension was immediately distributed into 96 well flat-bottom microculture plates (Costar) at 200 µl/well. […] L-679,934 was used as a standard. The culture plates were then incubated at 37°C in a humidified atmosphere of 5% CO₂-95% air for 44 hours. The proliferation of T lymphocytes was assessed by measurement of tritiated thymidine incorporation. After 44 hours of culturing, the cells were pulse-labelled with 2 µCi/well of tritiated thymidine (NEN, Cambridge, MA). After another 4 hours of incubation, cultures were harvested on glass fiber filters using a multiple sample harvester. Radioactivity of filter discs corresponding to individual wells was measured by standard liquid scintillation counting methods (Betacounter). Mean counts per minute of replicate wells were calculated and the results expressed as percent inhibition of tritiated thymidine uptake (proliferation) as follows: [formula]
Purified T lymphocytes were resuspended at 2.5 x 10⁵ cells/ml in complete culture medium composed of RPMI 1640 medium with 10% heat-inactivated fetal calf serum, 100 mM glutamine, 1 mM sodium pyruvate, 2 x 10⁻⁵ M 2-mercaptoethanol and 50 µg/ml gentamycin. Ionomycin was added at 250 ng/ml and PMA at 10 ng/ml. The cell suspension was immediately distributed into 96 well flat-bottom microculture plates (Costar) at 200 µl/well. […] L-679,934 was used as a standard. The culture plates were then incubated at 37°C in a humidified atmosphere of 5% CO₂-95% air for 44 hours. The proliferation of T lymphocytes was assessed by measurement of tritiated thymidine incorporation. After 44 hours of culturing, the cells were pulse-labelled with 2 µCi/well of tritiated thymidine (NEN, Cambridge, MA). After another 4 hours of incubation, cultures were harvested on glass fiber filters using a multiple sample harvester.

Structure (SMILES) | inhibition at 0.01 µg/mL (Mus musculus, T-lymphocyte, 10 ng/ml, ³H-thymidine pulse 4 hours, harvest at 48 hours) [%] | % Inhibition (0.6 ng/ml, ³H-thymidine pulse 4 hours, harvest at 48 hours) [%] | % Inhibition (0.9 ng/ml, ³H-thymidine pulse 4 hours, harvest at 48 hours) [%] | % Inhibition (1.3 ng/ml, ³H-thymidine pulse 4 hours, harvest at 48 hours) [%] | % Inhibition (1.9 ng/ml, ³H-thymidine pulse 4 hours, harvest at 48 hours) [%] | % Inhibition (2.9 ng/ml, ³H-thymidine pulse 4 hours, harvest at 48 hours) [%] | % Inhibition (4.4 ng/ml, ³H-thymidine pulse 4 hours, harvest at 48 hours) [%] | % Inhibition (6.6 ng/ml, ³H-thymidine pulse 4 hours, harvest at 48 hours) [%] | % Inhibition (10 ng/ml, ³H-thymidine pulse 4 hours, harvest at 48 hours) [%] | immunosuppressive activity, inhibition of T-cell activation | % Inhibition (0.29 ng/ml, ³H-thymidine pulse 4 hours, harvest at 48 hours) [%] | % Inhibition (0.44 ng/ml, ³H-thymidine pulse 4 hours, harvest at 48 hours) [%] | % Inhibition (0.66 ng/ml, ³H-thymidine pulse 4 hours, harvest at 48 hours) [%] | % Inhibition (0.99 ng/ml, ³H-thymidine pulse 4 hours, harvest at 48 hours) [%] | % Inhibition (1.5 ng/ml, ³H-thymidine pulse 4 hours, harvest at 48 hours) [%] | % Inhibition (2.2 ng/ml, ³H-thymidine pulse 4 hours, harvest at 48 hours) [%] | % Inhibition (3.3 ng/ml, ³H-thymidine pulse 4 hours, harvest at 48 hours) [%] | % Inhibition (5 ng/ml, ³H-thymidine pulse 4 hours, harvest at 48 hours) [%]
C=CC[C@@H]1/C=C(\C)C[C@H](C)C[C@H](OC)[C@H]2O[C@@](O)(C(=O)C(=O)N3CCCC[C@H]3C(=O)O[C@H](/C(C)=C/[C@@H]3CC[C@@H](O)[C@H](OC)C3)[C@H](C)[C@@H](O)CC1=O)[C@H](C)C[C@@H]2OC [L-679,934, reference compound] | 99 | – | – | – | – | – | – | – | – | – | – | – | – | – | – | – | – | –
CC[C@@H]1/C=C(\C)C[C@H](C)C[C@H](OC)[C@H]2O[C@@](O)(C(=O)C(=O)N3CCCC[C@H]3C(=O)O[C@H](/C(C)=C/[C@@H]3CC[C@@H](O)[C@H](O)C3)[C@H](C)[C@@H](O)CC1=O)[C@H](C)C[C@@H]2OC [demethimmunomycin, 31-desmethoxy-31-hydroxy-L-683,590] | – | 0 | 9.0 | 38.2 | 72.1 | 86.3 | 91.9 | 97.9 | 98.6 | positive inhibition of T-cell activation | – | – | – | – | – | – | – | –
C=CC[C@@H]1/C=C(\C)C[C@H](C)C[C@H](OC)[C@H]2O[C@@](O)(C(=O)C(=O)N3CCCC[C@H]3C(=O)O[C@H](/C(C)=C/[C@@H]3CC[C@@H](O)[C@H](O)C3)[C@H](C)[C@@H](O)CC1=O)[C@H](C)C[C@@H]2OC [demethomycin, 31-desmethoxy-31-hydroxy-L-679,934] | – | – | – | – | – | – | – | – | – | positive inhibition of T-cell activation | 0 | 0 | 36.8 | 67.1 | 80.5 | 92.9 | 97.2 | 98.1
